In patent US20220409619A1, “INHIBITORS OF HUMAN IMMUNODEFICIENCY VIRUS REPLICATION” (VIIV HEALTHCARE UK (No. 5) LIMITED, priority 2019, published 2022):

Experiments:
[1] = tested on: recombinant NL4-3 virus (nef section replaced with Renilla luciferase gene) in MT-2 cells; test: HIV cell culture assay (antiviral activity, luciferase readout); format: cell-based; details: Renilla, NL43
Protocol: HIV cell culture assay—MT-2 cells, 293T cells and the proviral DNA clone of NL4-3 virus were obtained from the NIH AIDS Research and Reference Reagent Program. MT-2 cells were propagated in RPMI 1640 media supplemented with 10% heat inactivated fetal bovine serum (FBS), 100 μg/ml penicillin G and up to 100 units/mL streptomycin. The 293T cells were propagated in DMEM media supplemented with 10% heat inactivated FBS, 100 μg/mL penicillin G and 100 μg/mL streptomycin. A recombinant NL4-3 proviral clone, in which a section of the nef gene was replaced with the Renilla luciferase gene, was used to make the reference virus used in these studies. The recombinant virus was prepared through transfection of the recombinant NL4-3 proviral clone into 293T cells using Transit-293 Transfection Reagent from Mirus Bio LLC (Madison, Wis.). Supernatent was harvested after 2-3 days and the amount of virus present was titered in MT-2 cells using luciferase enzyme activity as a marker by measuring luciferase enzyme activity. Luciferase was quantitated using the EnduRen Live Cell Substrate from Promega (Madison, Wis.). Antiviral activities of compounds toward the recombinant virus were quantified by measuring luciferase activity in MT-2 cells infected for 4-5 days with the recombinant virus in the presence of serial dilutions of the compound.
The 50% effective concentration (EC50) was calculated by using the exponential form of the median effect equation where (Fa)=1/[1+(ED50/drug conc.)^m] (Johnson V A, Byington R T. Infectivity Assay. In Techniques in HIV Research. ed. Aldovini A, Walker B D. 71-76. New York: Stockton Press. 1990). Curve fitting and analysis were performed with ActivityBase XE Runner software version 9.1.0.4 using model 203 (ID Business Solutions, LTD, Guildford, UK).

[2] = Compound cytotoxicity, XTT-based colorimetric assay; format: cell-based; details: human; uninfected MT2 cells, day 4, XTT-based colorimetric assay
Protocol: Compound cytotoxicity and the corresponding CC50 values were determined using the same protocol as described in the antiviral assay except that uninfected cells were used. Cytotoxicity was assessed on day 4 in uninfected MT2 cells by using a XTT (2,3-bis[2-Methoxy-4-nitro-5-sulfophenyl]-2H-tetrazolium-5-carboxyanilide inner salt)-based colorimetric assay (Sigma-Aldrich, St Louis, Mo.).

Structure (SMILES) | EC50 [1] | CC50 at 4 days [2]
COC(C)(C)CCc1cc(=O)n(-c2ccc(Cl)c3c(NS(C)(=O)=O)nn(C)c23)c([C@H](Cc2cc(F)cc(F)c2)NC(=O)Cn2nc(C(F)F)c3c2C(F)(F)[C@@H]2C[C@H]32)n1 (atropisomer, axis not shown; (P)) [Example 10, N-((S)-1-((1P)-1-(4-chloro-1-methyl-3-(methylsulfonamido)-1H-indazol-7-yl)-4-(3-methoxy-3-methylbutyl)-6-oxo-1,6-dihydropyrimidin-2-yl)-2-(3,5-difluorophenyl)ethyl)-2-((3bS,4aR)-3-(difluoromethyl)-5,5-difluoro-3b,4,4a,5-tetrahydro-1H-cyclopropa[3,4]cyclopenta[1,2-c]pyrazol-1-yl)acetamide] | 0.079 nM | > 100 nM
Cn1nc(NS(C)(=O)=O)c2c(Cl)ccc(-n3c([C@H](Cc4cc(F)cc(F)c4)NC(=O)Cn4nc(C(F)F)c5c4C(F)(F)[C@@H]4C[C@H]54)nc(-c4csc(C(C)(C)O)n4)cc3=O)c21 (atropisomer, axis not shown; (P)) [Example 18, N-((S)-1-((1P)-1-(4-chloro-1-methyl-3-(methylsulfonamido)-1H-indazol-7-yl)-4-(2-(2-hydroxypropan-2-yl)thiazol-4-yl)-6-oxo-1,6-dihydropyrimidin-2-yl)-2-(3,5-difluorophenyl)ethyl)-2-((3bS,4aR)-3-(difluoromethyl)-5,5-difluoro-3b,4,4a,5-tetrahydro-1H-cyclopropa[3,4]cyclopenta[1,2-c]pyrazol-1-yl)acetamide] | 0.47 nM | > 100 nM
CCOc1ccc(-c2cc(=O)n(-c3ccc(Cl)c4c(NS(C)(=O)=O)nn(C)c34)c([C@H](Cc3cc(F)cc(F)c3)NC(=O)Cn3nc(C(F)F)c4c3C(F)(F)[C@@H]3C[C@H]43)n2)cn1 (atropisomer, axis not shown; (P)) [Example 22, N-((S)-1-((1P)-1-(4-chloro-1-methyl-3-(methylsulfonamido)-1H-indazol-7-yl)-4-(6-ethoxypyridin-3-yl)-6-oxo-1,6-dihydropyrimidin-2-yl)-2-(3,5-difluorophenyl)ethyl)-2-((3bS,4aR)-3-(difluoromethyl)-5,5-difluoro-3b,4,4a,5-tetrahydro-1H-cyclopropa[3,4]cyclopenta[1,2-c]pyrazol-1-yl)acetamide] | 0.46 nM | > 100 nM
O=C(Cn1nc(C(F)F)c2c1C(F)(F)[C@@H]1C[C@H]21)N[C@@H](Cc1cc(F)cc(F)c1)c1nc(-c2cccc(C(F)(F)F)n2)cc(=O)n1-c1ccc(Cl)c2c(NS(=O)(=O)C3CC3)nn(CC(F)F)c12 (atropisomer, axis not shown; (P)) [Example 44, N-((S)-1-((1P)-1-(4-chloro-3-(cyclopropanesulfonamido)-1-(2,2-difluoroethyl)-1H-indazol-7-yl)-6-oxo-4-(6-(trifluoromethyl)pyridin-2-yl)-1,6-dihydropyrimidin-2-yl)-2-(3,5-difluorophenyl)ethyl)-2-((3bS,4aR)-3-(difluoromethyl)-5,5-difluoro-3b,4,4a,5-tetrahydro-1H-cyclopropa[3,4]cyclopenta[1,2-c]pyrazol-1-yl)acetamide] | 0.24 nM | > 100 nM
COc1cnc(-c2cc(=O)n(-c3ccc(Cl)c4c(NS(C)(=O)=O)nn(C)c34)c([C@H](Cc3cc(F)cc(F)c3)NC(=O)Cn3nc(C(F)F)c4c3C(F)(F)[C@@H]3C[C@H]43)n2)cn1 (atropisomer, axis not shown; (P)) [Example 13, N-((S)-1-((1P)-1-(4-chloro-1-methyl-3-(methylsulfonamido)-1H-indazol-7-yl)-4-(5-methoxypyrazin-2-yl)-6-oxo-1,6-dihydropyrimidin-2-yl)-2-(3,5-difluorophenyl)ethyl)-2-((3bS,4aR)-3-(difluoromethyl)-5,5-difluoro-3b,4,4a,5-tetrahydro-1H-cyclopropa[3,4]cyclopenta[1,2-c]pyrazol-1-yl)acetamide] | 0.2 nM | > 100 nM
O=C(Cn1nc(C(F)F)c2c1C(F)(F)[C@@H]1C[C@H]21)N[C@@H](Cc1cc(F)cc(F)c1)c1nc(-c2cccc(F)n2)cc(=O)n1-c1ccc(Cl)c2c(NS(=O)(=O)C3CC3)nn(CC(F)F)c12 (atropisomer, axis not shown; (P)) [Example 28, N-((S)-1-((1P)-1-(4-chloro-3-(cyclopropanesulfonamido)-1-(2,2-difluoroethyl)-1H-indazol-7-yl)-4-(6-fluoropyridin-2-yl)-6-oxo-1,6-dihydropyrimidin-2-yl)-2-(3,5-difluorophenyl)ethyl)-2-((3bS,4aR)-3-(difluoromethyl)-5,5-difluoro-3b,4,4a,5-tetrahydro-1H-cyclopropa[3,4]cyclopenta[1,2-c]pyrazol-1-yl)acetamide] | 0.39 nM | > 100 nM
Cc1cc(C)nc(-c2cc(=O)n(-c3ccc(Cl)c4c(NS(=O)(=O)C5CC5)nn(CC(F)F)c34)c([C@H](Cc3cc(F)cc(F)c3)NC(=O)Cn3nc(C(F)F)c4c3C(F)(F)[C@@H]3C[C@H]43)n2)n1 (atropisomer, axis not shown; (aR)) [Example 34, N-((S)-1-(1′-(4-chloro-3-(cyclopropanesulfonamido)-1-(2,2-difluoroethyl)-1H-indazol-7-yl)-4,6-dimethyl-6′-oxo-1′,6′-dihydro-[2,4′-bipyrimidin]-2′-yl)-2-(3,5-difluorophenyl)ethyl)-2-((3bS,4aR)-3-(difluoromethyl)-5,5-difluoro-3b,4,4a,5-tetrahydro-1H-cyclopropa[3,4]cyclopenta[1,2-c]pyrazol-1-yl)acetamide] | 0.24 nM | > 100 nM
CCc1cnc(-c2cc(=O)n(-c3ccc(Cl)c4c(NS(C)(=O)=O)nn(C)c34)c([C@H](Cc3cc(F)cc(F)c3)NC(=O)Cn3nc(C(F)F)c4c3C(F)(F)[C@@H]3C[C@H]43)n2)nc1 (atropisomer, axis not shown; (aR)) [Example 12, N-((S)-1-((1′P)-1′-(4-chloro-1-methyl-3-(methylsulfonamido)-1H-indazol-7-yl)-5-ethyl-6′-oxo-1′,6′-dihydro-[2,4′-bipyrimidin]-2′-yl)-2-(3,5-difluorophenyl)ethyl)-2-((3bS,4aR)-3-(difluoromethyl)-5,5-difluoro-3b,4,4a,5-tetrahydro-1H-cyclopropa[3,4]cyclopenta[1,2-c]pyrazol-1-yl)acetamide] | 0.019 nM | > 100 nM
Cn1nc(C(F)(F)F)cc1-c1cc(=O)n(-c2ccc(Cl)c3c(NS(C)(=O)=O)nn(C)c23)c([C@H](Cc2cc(F)cc(F)c2)NC(=O)Cn2nc(C(F)F)c3c2C(F)(F)[C@@H]2C[C@H]32)n1 (atropisomer, axis not shown; (P)) [Example 19, N-((S)-1-((1P)-1-(4-chloro-1-methyl-3-(methylsulfonamido)-1H-indazol-7-yl)-4-(1-methyl-3-(trifluoromethyl)-1H-pyrazol-5-yl)-6-oxo-1,6-dihydropyrimidin-2-yl)-2-(3,5-difluorophenyl)ethyl)-2-((3bS,4aR)-3-(difluoromethyl)-5,5-difluoro-3b,4,4a,5-tetrahydro-1H-cyclopropa[3,4]cyclopenta[1,2-c]pyrazol-1-yl)acetamide] | 0.74 nM | > 100 nM
CCOc1ccc(-c2cc(=O)n(-c3ccc(Cl)c4c(NS(=O)(=O)C5CC5)nn(CC(F)F)c34)c([C@H](Cc3cc(F)cc(F)c3)NC(=O)Cn3nc(C(F)F)c4c3C(F)(F)[C@@H]3C[C@H]43)n2)cn1 (atropisomer, axis not shown; (P)) [Example 37, N-((S)-1-((1P)-1-(4-chloro-3-(cyclopropanesulfonamido)-1-(2,2-difluoroethyl)-1H-indazol-7-yl)-4-(6-ethoxypyridin-3-yl)-6-oxo-1,6-dihydropyrimidin-2-yl)-2-(3,5-difluorophenyl)ethyl)-2-((3bS,4aR)-3-(difluoromethyl)-5,5-difluoro-3b,4,4a,5-tetrahydro-1H-cyclopropa[3,4]cyclopenta[1,2-c]pyrazol-1-yl)acetamide] | 3.7 nM | > 100 nM
CC(C)(C#Cc1cc(=O)n(-c2ccc(Cl)c3c(NS(=O)(=O)C4CC4)nn(CC(F)F)c23)c([C@H](Cc2cc(F)cc(F)c2)NC(=O)Cn2nc(C(F)F)c3c2C(F)(F)[C@@H]2C[C@H]32)n1)S(C)(=O)=O (atropisomer, axis not shown; (P)) [Example 47, N-((S)-1-((1P)-1-(4-chloro-3-(cyclopropanesulfonamido)-1-(2,2-difluoroethyl)-1H-indazol-7-yl)-4-(3-methyl-3-(methylsulfonyl)but-1-yn-1-yl)-6-oxo-1,6-dihydropyrimidin-2-yl)-2-(3,5-difluorophenyl)ethyl)-2-((3bS,4aR)-3-(difluoromethyl)-5,5-difluoro-3b,4,4a,5-tetrahydro-1H-cyclopropa[3,4]cyclopenta[1,2-c]pyrazol-1-yl)acetamide] | 0.047 nM | > 100 nM
